# Experimental data reported in PubChem BioAssay AID252 (DTP/NCI, 2004).
# “And” between values parts separate entries of the source, which are not always exact repeats. Equal values may be shown once. Toxic doses and inconclusive results are not listed.
# Test system: BDF1 mice, intracerebral L1210 leukemia, survival T/C
# Assay: NCI In Vivo Anticancer Drug Screen. Data for tumor model L1210 Leukemia (intracerebral) in B6D2F1 (BDF1) mice
# Details: higher = longer survival
# Procedure: The antitumor activity of compounds was measured in mice bearing transplantable tumors. Survival or tumor size were measured and the results are expressed as the measurement made in the treated group (T) divided by the measurement made in the vehicle treated control group (C). The tumor model used in this assay is L1210 Leukemia (intracerebral) in B6D2F1 (BDF1) mice
smiles,measurement,setting,value
O=NN(CCCl)C(=O)NC1CS(=O)(=O)CS(=O)(=O)C1,T/C,"endpoint: mean survival time, dose: 11.0 mg/kg/injection, schedule: Q01DX001 (ip), vehicle: other",118 % of control
same,T/C,"endpoint: mean survival time, dose: 17.0 mg/kg/injection, schedule: Q01DX001 (ip), vehicle: other",117 % of control
same,T/C,"endpoint: mean survival time, dose: 56.0 mg/kg/injection, schedule: Q01DX001 (ip), vehicle: other",119 % of control
CC[n+]1ccc(Nc2ccc(NC(=O)c3ccc(Nc4cc[n+](CC)c5ccc(N)cc45)cc3)cc2)cc1,T/C,"endpoint: mean survival time, dose: 1.0 mg/kg/injection, schedule: Q01DX009 (ip), vehicle: water",100 % of control
same,T/C,"endpoint: mean survival time, dose: 2.0 mg/kg/injection, schedule: Q01DX009 (ip), vehicle: water",102 % of control
same,T/C,"endpoint: mean survival time, dose: 4.0 mg/kg/injection, schedule: Q01DX009 (ip), vehicle: water",111 % of control
same,T/C,"endpoint: mean survival time, dose: 8.0 mg/kg/injection, schedule: Q01DX009 (ip), vehicle: water",97 % of control
CC1CC(NC(=O)N(CCCl)N=O)CC(C)(C)C1 (stereo not drawn),T/C,"endpoint: mean survival time, dose: 375.0 mg/kg/injection, schedule: Q01DX001 (ip), vehicle: other",103 % of control
same,T/C,"endpoint: mean survival time, dose: 500.0 mg/kg/injection, schedule: Q01DX001 (ip), vehicle: other",124 % of control
same,T/C,"endpoint: mean survival time, dose: 750.0 mg/kg/injection, schedule: Q01DX001 (ip), vehicle: other",116 % of control
N[C@H](C(=O)O)[C@H]1ON=C(Cl)[C@@H]1O,T/C,"endpoint: mean survival time, dose: 8.0 mg/kg/injection, schedule: Q01DX009 (ip), vehicle: saline",109 % of control
same,T/C,"endpoint: mean survival time, dose: 16.0 mg/kg/injection, schedule: Q01DX009 (ip), vehicle: saline",115 % of control
same,T/C,"endpoint: median survival time, dose: 256.0 mg/kg/injection, schedule: Q01DX009 (ip), vehicle: saline",123 % of control
same,T/C,"endpoint: median survival time, dose: 512.0 mg/kg/injection, schedule: Q01DX009 (ip), vehicle: saline",111 % of control
same,T/C,"endpoint: median survival time, dose: 1024.0 mg/kg/injection, schedule: Q01DX009 (ip), vehicle: saline",171 % of control
CN(N=O)C(=O)NC(N)=O,T/C,"endpoint: mean survival time, dose: 33.0 mg/kg/injection, schedule: Q01DX001 (ip), vehicle: carboxymethylcellulose (CMC)",102 % of control
same,T/C,"endpoint: mean survival time, dose: 50.0 mg/kg/injection, schedule: Q01DX001 (ip), vehicle: carboxymethylcellulose (CMC)",105 % of control
same,T/C,"endpoint: mean survival time, dose: 75.0 mg/kg/injection, schedule: Q01DX001 (ip), vehicle: carboxymethylcellulose (CMC)",114 % of control
same,T/C,"endpoint: mean survival time, dose: 112.0 mg/kg/injection, schedule: Q01DX001 (ip), vehicle: carboxymethylcellulose (CMC)",115 % of control
O=C(Nc1ccc(C2=NCCN2)cc1)c1cccc(C(=O)Nc2ccc(C3=NCCN3)cc2)c1,T/C,"endpoint: mean survival time, dose: 31.0 mg/kg/injection, schedule: Q01DX Z (ip), vehicle: water",89 % of control
N#CCCN1c2ccccc2Sc2ccccc21,T/C,"endpoint: mean survival time, dose: 12.5 mg/kg/injection, schedule: Q04DX003 (ip), vehicle: Klucel (hydroxypropylcellulose) (HPC)",100 % of control
same,T/C,"endpoint: mean survival time, dose: 25.0 mg/kg/injection, schedule: Q04DX003 (ip), vehicle: Klucel (hydroxypropylcellulose) (HPC)",96 % of control
same,T/C,"endpoint: mean survival time, dose: 50.0 mg/kg/injection, schedule: Q04DX003 (ip), vehicle: Klucel (hydroxypropylcellulose) (HPC)",109 % of control
same,T/C,"endpoint: mean survival time, dose: 100.0 mg/kg/injection, schedule: Q04DX003 (ip), vehicle: Klucel (hydroxypropylcellulose) (HPC)",104 % of control
same,T/C,"endpoint: mean survival time, dose: 200.0 mg/kg/injection, schedule: Q04DX003 (ip), vehicle: Klucel (hydroxypropylcellulose) (HPC)",98 % of control
O=c1n(CC2CO2)c(=O)n(CC2CO2)c(=O)n1CC1CO1 (stereo not drawn),T/C,"endpoint: median survival time, dose: 40.0 mg/kg/injection, schedule: Q01DX009 (ip), vehicle: saline",151 % of control
same,T/C,"endpoint: median survival time, dose: 70.0 mg/kg/injection, schedule: Q01DX009 (ip), vehicle: saline",121 % of control
same,T/C,"endpoint: median survival time, dose: 80.0 mg/kg/injection, schedule: Q01DX009 (ip), vehicle: saline",121 % of control
same,T/C,"endpoint: median survival time, dose: 90.0 mg/kg/injection, schedule: Q01DX009 (ip), vehicle: saline",122 % of control
CCCOC1=C(N2CC2)C(=O)C(OCCC)=C(N2CC2)C1=O,T/C,"endpoint: mean survival time, dose: 0.25 mg/kg/injection, schedule: Q01DX009 (ip), vehicle: saline",105 % of control
same,T/C,"endpoint: mean survival time, dose: 0.5 mg/kg/injection, schedule: Q01DX005 (ip), vehicle: saline",97 % of control
same,T/C,"endpoint: mean survival time, dose: 0.5 mg/kg/injection, schedule: Q01DX009 (ip), vehicle: saline",113 % of control
same,T/C,"endpoint: mean survival time, dose: 1.0 mg/kg/injection, schedule: Q01DX005 (ip), vehicle: saline",101 % of control
same,T/C,"endpoint: mean survival time, dose: 1.0 mg/kg/injection, schedule: Q01DX009 (ip), vehicle: saline",104 % of control and 302 % of control
same,T/C,"endpoint: mean survival time, dose: 2.0 mg/kg/injection, schedule: Q01DX005 (ip), vehicle: saline",108 % of control
same,T/C,"endpoint: mean survival time, dose: 2.0 mg/kg/injection, schedule: Q01DX009 (ip), vehicle: saline",111 % of control and 117 % of control
same,T/C,"endpoint: mean survival time, dose: 4.0 mg/kg/injection, schedule: Q01DX005 (ip), vehicle: saline",106 % of control
same,T/C,"endpoint: mean survival time, dose: 4.0 mg/kg/injection, schedule: Q01DX009 (ip), vehicle: saline",117 % of control
